US10426758B2, “Sibiriline derivatives for use for preventing and/or treating disorders associated with cellular necroptosis” (Institut National de la Sante et de la Recherche Medicale …, priority 2015, dated 2019)

Columns and labels:
[1] = biological target: T1, RIPK1 (Homo sapiens, UniProt Q13546); experiment: Competition binding assay for kinase targets of Sib (456 kinases); settings: remaining kinase on the matrix after competition, read-out: Percent Control (%)
T1 construct: purchased DiscoveRx Corporation (KdELECT service)
T1 sequence (Q13546 1-671): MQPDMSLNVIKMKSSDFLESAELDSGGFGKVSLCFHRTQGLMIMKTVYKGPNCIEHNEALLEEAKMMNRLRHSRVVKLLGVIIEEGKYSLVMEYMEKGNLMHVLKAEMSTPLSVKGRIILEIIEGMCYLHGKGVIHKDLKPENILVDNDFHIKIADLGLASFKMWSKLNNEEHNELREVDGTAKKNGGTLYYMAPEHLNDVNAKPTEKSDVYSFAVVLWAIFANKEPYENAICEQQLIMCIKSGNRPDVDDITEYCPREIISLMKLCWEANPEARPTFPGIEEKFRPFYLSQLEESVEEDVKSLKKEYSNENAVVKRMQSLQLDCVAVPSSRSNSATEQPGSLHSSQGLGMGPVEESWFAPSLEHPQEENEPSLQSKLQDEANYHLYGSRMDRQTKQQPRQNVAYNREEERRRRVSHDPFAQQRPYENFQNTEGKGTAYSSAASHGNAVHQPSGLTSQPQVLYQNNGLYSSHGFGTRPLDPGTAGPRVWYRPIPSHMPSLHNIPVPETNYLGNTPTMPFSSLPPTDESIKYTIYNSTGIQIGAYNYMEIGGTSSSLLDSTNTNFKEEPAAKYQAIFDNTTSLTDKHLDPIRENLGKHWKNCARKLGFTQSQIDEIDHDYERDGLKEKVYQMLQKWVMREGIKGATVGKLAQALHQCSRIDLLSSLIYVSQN
Description: (§1) The assay is performed by combining three components: DNA-tagged kinase (a total of 456 kinases were tested); immobilized ligand; and a test compound (here Sib). The ability of Sib to compete with the immobilized ligand is measured via quantitative PCR of the DNA tag.

[2] = biological target: T2, JAK2 (JH1domain-catalytic) (Homo sapiens, UniProt O60674); experiment: as above; settings: remaining kinase on the matrix after competition, read-out: Percent Control (%)
T2 construct: JAK2(JH1domain-catalytic)
Description: as §1

[3] = biological target: KIT (Homo sapiens, UniProt P10721); experiment: as above; settings: remaining kinase on the matrix after competition, read-out: Percent Control (%)
Description: as §1

[4] = biological target: T3, DRAK2 (Homo sapiens, UniProt O94768); experiment: as above; settings: remaining kinase on the matrix after competition, read-out: Percent Control (%)
T3 sequence (O94768 1-372): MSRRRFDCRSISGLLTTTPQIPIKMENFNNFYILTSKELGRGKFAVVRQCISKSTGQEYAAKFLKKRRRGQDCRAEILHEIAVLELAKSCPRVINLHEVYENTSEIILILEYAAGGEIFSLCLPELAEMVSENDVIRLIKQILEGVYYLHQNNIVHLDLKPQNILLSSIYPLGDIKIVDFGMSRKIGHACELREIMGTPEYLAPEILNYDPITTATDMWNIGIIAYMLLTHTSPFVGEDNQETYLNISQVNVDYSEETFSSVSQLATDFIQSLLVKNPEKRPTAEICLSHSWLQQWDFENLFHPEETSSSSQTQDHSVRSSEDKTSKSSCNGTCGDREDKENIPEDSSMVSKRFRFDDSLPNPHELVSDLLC
Description: as §1

[5] = system: L929 cells; experiment: Anti-necroptotic effect, L929 cells, TNF + zVAD, FACS of propidium iodide-stained nuclei; format: cell-based
Description: (§2) L929 cells, L929AsFas cells, Jurkat FADD-deficient cells (Jurkat FADD^−/−), U937 cells are pretreated for 1 h with increased concentrations of Sib (0, 5, 10, 20 μM) and then treated respectively with TNF-α (10 ng/ml)+zVAD (20 μM), FasL (200 ng/ml)+zVAD (20 μM), TNF-α (10 ng/ml), TRAIL (200 ng/ml)+zVAD (30 μM) or TRAIL (200 ng/ml)+zVAD (30 μM)+CHX (1 μg/ml). % of cell death is determined after 24 h and calculated by a FACS analysis of Propidium Iodide-stained nuclei. In each case, the EC50 is determined as well as the % of rescue from cell death.

[6] = system: U937 cells; experiment: Anti-necroptotic effect, U937 cells, TRAIL + zVAD, FACS of propidium iodide-stained nuclei; format: cell-based
Description: as §2

[7] = system: L929 cells; experiment: Clonogenic assay (CA); format: cell-based; settings: 10 μM for 24 hours with TNF-α (10 ng/ml)/z-VAD (20 μM); 15 days of culture
Description: This effect of Sibiriline on necroptosis was verified using clonogenic assay (CA). CA is an in vitro cell survival assay based on the ability of a single cell to grow into a colony.
L929 cells are treated by TNF-α (10 ng/ml)/z-VAD (20 μM) w/or w/o 10 μM Sib for 24 hours. After treatment, cells are seeded out in appropriate dilutions (here 5,000 cells per well) to form colonies in 2 weeks. Colonies are fixed with ice cold methanol and stained with crystal violet.

Chain of KIT (P10721 26-976): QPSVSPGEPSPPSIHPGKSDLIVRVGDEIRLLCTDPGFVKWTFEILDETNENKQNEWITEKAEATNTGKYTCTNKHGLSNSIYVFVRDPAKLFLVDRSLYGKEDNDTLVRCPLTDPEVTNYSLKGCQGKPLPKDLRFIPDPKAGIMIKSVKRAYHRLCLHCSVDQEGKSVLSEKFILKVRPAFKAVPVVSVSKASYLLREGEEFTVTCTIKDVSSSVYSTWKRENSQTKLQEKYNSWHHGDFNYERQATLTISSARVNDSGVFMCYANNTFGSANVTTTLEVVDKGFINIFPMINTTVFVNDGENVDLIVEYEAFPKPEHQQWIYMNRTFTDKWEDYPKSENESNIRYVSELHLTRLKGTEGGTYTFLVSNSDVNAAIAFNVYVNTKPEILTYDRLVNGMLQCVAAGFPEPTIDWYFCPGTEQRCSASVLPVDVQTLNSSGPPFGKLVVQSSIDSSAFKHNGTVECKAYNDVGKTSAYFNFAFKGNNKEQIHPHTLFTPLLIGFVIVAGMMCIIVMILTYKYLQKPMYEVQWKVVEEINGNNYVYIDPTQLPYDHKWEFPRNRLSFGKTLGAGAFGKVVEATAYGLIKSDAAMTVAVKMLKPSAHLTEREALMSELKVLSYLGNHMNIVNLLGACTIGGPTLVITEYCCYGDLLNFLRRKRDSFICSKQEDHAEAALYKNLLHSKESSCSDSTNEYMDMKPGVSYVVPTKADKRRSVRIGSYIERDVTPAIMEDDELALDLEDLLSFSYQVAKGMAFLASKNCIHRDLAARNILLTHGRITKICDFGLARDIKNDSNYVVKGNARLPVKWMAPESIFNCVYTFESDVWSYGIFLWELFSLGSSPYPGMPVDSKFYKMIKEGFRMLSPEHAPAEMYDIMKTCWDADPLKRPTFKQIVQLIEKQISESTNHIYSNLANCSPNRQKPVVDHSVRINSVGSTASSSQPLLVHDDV
T2 sequence (O60674 849-1124 limits assumed): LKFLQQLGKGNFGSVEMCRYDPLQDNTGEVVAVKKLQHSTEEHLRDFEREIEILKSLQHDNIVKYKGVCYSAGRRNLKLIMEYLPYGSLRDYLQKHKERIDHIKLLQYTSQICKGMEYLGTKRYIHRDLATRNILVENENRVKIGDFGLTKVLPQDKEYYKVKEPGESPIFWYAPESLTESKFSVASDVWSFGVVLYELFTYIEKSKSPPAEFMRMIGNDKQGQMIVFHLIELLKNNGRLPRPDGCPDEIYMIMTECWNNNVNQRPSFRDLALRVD

remaining binding at 10 µM [1]: 0.2% | remaining binding at 10 µM [2]: 0.2% | remaining binding at 10 µM [3]: 0.8% | remaining binding at 10 µM [4]: 0.75%
Structure (SMILES): Oc1ccc(-c2cc3cccnc3[nH]2)cc1 [compound 2, 4-(1H-pyrrolo[2,3-b]pyridin-2-yl)phenol]
EC50 ([5]; Mus musculus, 1 h pretreatment, cell death after 24 h): 3 µM | % Rescue ([5]; rescue from cell death, 24 h): 80% | EC50 ([6]; Homo sapiens, U-937, 1 h pretreatment, cell death after 24 h): 4 µM | % Rescue ([6]; rescue from cell death, 24 h): 90% | cell colonies (cellular growth) after treatment [7]: can restore the cellular growth and protect cells from death
